From PubChem BioAssay (NCI) come the findings set out here.

SMILES strings stand for the structures.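 Cells were grown in 96-well plates and exposed to each compound for 48 hours at five concentrations; endpoints were interpolated linearly between bracketing concentrations, or set to the highest concentration if not reached. GI50 = concentration required for 50% inhibition of growth. Definition used: TGI = concentration required for complete inhibition of growth.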 Where only a bound is given, the exact number is not on record here.

Some test systems named below: DMS 114 small cell lung; DMS 273 small cell lung; HOP-18 NSCLC; P388 leukemia; SN12K1 renal; SNB-78 CNS; XF 498 CNS; 786-0 renal; DU-145 prostate; HS 578T breast; MDA-MB-435; MDA-N; PC-3 prostate; RXF-631 renal; T-47D breast.
Common to all, as to test: NCI tumour cell line growth inhibition, 48 h

In the case of `O=CNc1cccc2c3c([nH]c12)CCCCCC3`, the TGI in the test with DMS 114 small cell lung, with DMS 273 small cell lung, in the test with HOP-18 NSCLC, with P388 leukemia, with SN12K1 renal and with SNB-78 CNS was more than 100 µM throughout. For the same compound, in the test with XF 498 CNS, the TGI is more than 100 µM.

Regarding `CCCCc1ccc2[n+](c1)C(C(=O)OCC)=PC2` (centres undefined), the TGI in the test with 786-0 renal, in the test with DU-145 prostate, in the test on HS 578T breast, with MDA-MB-435, in the test with MDA-N and with PC-3 prostate was more than 100 µM in each case.

`Cc1cc(NS(=O)(=O)c2ccc(Nc3c4ccccc4nc4c(C(=O)NCCN(C)C)ccc(Cl)c34)cc2)no1`: the TGI in the test with DMS 114 small cell lung was found to be 13.9 µM; with RXF-631 renal it was 20.9 µM; in the test with SNB-78 CNS, 44 µM; with XF 498 CNS, 26.7 µM.

For the compound `COc1ccc(C(=O)Cc2cc(OC)ccc2OC)cc1`, the TGI with DMS 114 small cell lung, with DMS 273 small cell lung, in the test on HOP-18 NSCLC, in the test with RXF-631 renal and with SNB-78 CNS was more than 100 µM each time.

Take `C=C1C(=O)O[C@H]2C1[C@H](OC(=O)/C(C)=C\COC(C)=O)C[C@]1(CO1)[C@@H]1[C@H](O)[C@H]3O[C@@]3(C)[C@@H]12` (some centres undefined): the TGI was 42.6 µM in the test with DMS 114 small cell lung; more than 63.2 µM in the test on DMS 273 small cell lung; 41.4 µM in the test with HOP-18 NSCLC; 18.4 µM in the test with P388 leukemia; more than 55.9 µM in the test with SN12K1 renal; more than 73.5 µM with SNB-78 CNS. The compound further showed a TGI with XF 498 CNS of 38.4 µM.

Turning to `O=C1c2ccccc2-c2ccc(NC(=O)C3CCCCC3C(=O)O)cc21` (centres undefined), the TGI in the test with 786-0 renal, in the test on DU-145 prostate, with HS 578T breast, with MDA-MB-435, with MDA-N and in the test with PC-3 prostate was more than 100 µM throughout. In the test on T-47D breast, this compound gave a TGI of more than 100 µM.

As for `COc1cc(N=Nc2cccc(S(=O)(=O)O)c2)c(C)cc1N=Nc1ccc(/C=C/c2ccc(N=[N+]([O-])c3ccc(/C=C/c4ccc(N=Nc5cc(C)c(N=Nc6cccc(S(=O)(=O)O)c6)cc5OC)cc4)c(S(=O)(=O)O)c3)cc2S(=O)(=O)O)cc1`, the TGI in the test with DMS 114 small cell lung, in the test on DMS 273 small cell lung, in the test with HOP-18 NSCLC, in the test on P388 leukemia, with SN12K1 renal and in the test with XF 498 CNS was more than 100 µM in each case.

`COC(=O)C(C)N1C(=O)c2ccccc2I1OC(C)=O` (centres undefined): the GI50 was more than 100 µM in the test on DU-145 prostate; more than 100 µM with HS 578T breast; more than 100 µM in the test with MDA-MB-435; more than 100 µM in the test with PC-3 prostate; 21 µM with T-47D breast. For the same compound, the TGI is more than 100 µM with DU-145 prostate; more than 100 µM in the test on HS 578T breast; more than 100 µM in the test on MDA-MB-435; more than 100 µM with PC-3 prostate; 82.6 µM in the test with T-47D breast.

Take `CCOC(=O)C1C(c2cc(OC)c(O)c(OC)c2)c2cc3c(cc2OC1(C)O)OCO3` (centres undefined): the TGI in the test on DMS 273 small cell lung, in the test on HOP-18 NSCLC, in the test with RXF-631 renal, with SNB-78 CNS and in the test with XF 498 CNS was more than 100 µM each time.

As to `CC(C)=CCN(N=O)c1ncnc2nc[nH]c12`, the TGI with 786-0 renal, with DU-145 prostate, in the test with HS 578T breast, with MDA-MB-435, in the test with MDA-N and in the test on PC-3 prostate was more than 100 µM each time. In the test with T-47D breast, this compound gave a TGI of more than 100 µM.
